Values belong to the compound of their own block, whether it stands above or below them. Calls of active or inactive are those of the source.
What was measured:
[1] = target: T1, Sentrin-specific protease 6 (Homo sapiens, UniProt Q9GZR1); assay: SAR Analysis of small molecule inhibitors of Sentrin-specific protease 6 (SENP6) using a Luminescent assay. [Related pubchem assays (depositor defined):AID2582, AID2599]; format: functional
T1 sequence (Q9GZR1 whole entry): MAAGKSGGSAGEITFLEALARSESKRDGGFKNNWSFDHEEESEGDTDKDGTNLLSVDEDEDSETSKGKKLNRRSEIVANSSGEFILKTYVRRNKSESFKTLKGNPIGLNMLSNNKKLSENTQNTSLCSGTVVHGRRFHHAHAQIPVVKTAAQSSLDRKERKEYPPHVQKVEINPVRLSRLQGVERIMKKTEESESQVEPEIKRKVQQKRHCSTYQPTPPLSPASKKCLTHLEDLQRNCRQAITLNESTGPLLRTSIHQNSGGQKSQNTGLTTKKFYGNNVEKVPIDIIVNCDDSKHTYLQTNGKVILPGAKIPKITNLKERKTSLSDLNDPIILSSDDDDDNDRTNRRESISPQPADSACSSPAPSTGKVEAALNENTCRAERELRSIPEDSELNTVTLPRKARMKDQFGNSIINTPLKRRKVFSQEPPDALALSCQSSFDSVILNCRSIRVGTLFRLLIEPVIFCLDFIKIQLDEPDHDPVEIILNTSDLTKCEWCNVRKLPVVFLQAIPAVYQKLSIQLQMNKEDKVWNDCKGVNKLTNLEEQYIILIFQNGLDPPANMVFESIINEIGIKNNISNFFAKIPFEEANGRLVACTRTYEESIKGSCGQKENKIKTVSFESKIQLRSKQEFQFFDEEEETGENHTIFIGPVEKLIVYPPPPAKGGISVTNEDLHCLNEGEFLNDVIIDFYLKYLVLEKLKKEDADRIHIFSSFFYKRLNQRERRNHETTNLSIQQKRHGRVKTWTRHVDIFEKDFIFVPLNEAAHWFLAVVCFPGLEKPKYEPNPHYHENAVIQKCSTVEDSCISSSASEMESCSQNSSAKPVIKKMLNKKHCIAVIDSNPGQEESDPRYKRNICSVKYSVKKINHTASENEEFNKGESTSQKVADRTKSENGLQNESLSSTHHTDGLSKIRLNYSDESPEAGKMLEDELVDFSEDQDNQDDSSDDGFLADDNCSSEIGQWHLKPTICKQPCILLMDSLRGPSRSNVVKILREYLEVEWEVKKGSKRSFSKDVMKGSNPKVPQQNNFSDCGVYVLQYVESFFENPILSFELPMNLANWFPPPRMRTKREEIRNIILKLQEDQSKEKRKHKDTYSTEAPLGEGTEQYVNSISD

[2] = target: T2, Sentrin-specific protease 7 (Homo sapiens, UniProt Q9BQF6); assay: inhibition of human SENP7 cleavage activity – biochemical, luminescence, SAR follow-up (AID 504497); format: functional
T2 sequence (Q9BQF6 whole entry): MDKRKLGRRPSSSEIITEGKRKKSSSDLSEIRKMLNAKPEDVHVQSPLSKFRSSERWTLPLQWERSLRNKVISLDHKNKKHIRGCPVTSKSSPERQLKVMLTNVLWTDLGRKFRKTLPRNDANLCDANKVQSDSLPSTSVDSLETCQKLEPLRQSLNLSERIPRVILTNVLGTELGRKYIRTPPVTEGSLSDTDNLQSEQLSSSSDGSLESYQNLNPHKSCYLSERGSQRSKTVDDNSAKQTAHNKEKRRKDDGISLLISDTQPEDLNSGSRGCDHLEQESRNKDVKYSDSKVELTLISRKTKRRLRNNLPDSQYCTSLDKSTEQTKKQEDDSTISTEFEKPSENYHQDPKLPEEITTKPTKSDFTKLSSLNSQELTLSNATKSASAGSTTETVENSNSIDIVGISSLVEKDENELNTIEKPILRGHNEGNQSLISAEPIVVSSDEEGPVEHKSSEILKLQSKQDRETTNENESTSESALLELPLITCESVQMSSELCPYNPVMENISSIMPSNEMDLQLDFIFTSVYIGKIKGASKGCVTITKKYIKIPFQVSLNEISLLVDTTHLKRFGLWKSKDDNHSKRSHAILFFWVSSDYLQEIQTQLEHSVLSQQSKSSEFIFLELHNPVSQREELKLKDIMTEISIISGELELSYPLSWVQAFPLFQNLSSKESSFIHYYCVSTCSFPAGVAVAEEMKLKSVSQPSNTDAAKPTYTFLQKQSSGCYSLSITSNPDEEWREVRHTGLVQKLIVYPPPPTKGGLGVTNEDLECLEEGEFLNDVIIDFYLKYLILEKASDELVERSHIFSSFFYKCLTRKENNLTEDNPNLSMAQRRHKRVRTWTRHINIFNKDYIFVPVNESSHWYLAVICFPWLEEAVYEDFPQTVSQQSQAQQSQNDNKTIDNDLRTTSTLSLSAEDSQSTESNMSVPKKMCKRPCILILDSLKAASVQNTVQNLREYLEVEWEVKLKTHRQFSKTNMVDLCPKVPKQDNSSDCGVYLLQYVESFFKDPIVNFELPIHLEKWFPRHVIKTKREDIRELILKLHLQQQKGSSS

[3] = target: T3, Caspase-3 (Homo sapiens, UniProt P42574); assay: SAR Analysis of small molecule inhibitors of Sentrin-specific proteases (SENPs) using a Caspase-3 Selectivity assay. [Related pubchem assays (depositor defined):AID2540, AID2599, AID434973, AID489001]; format: functional
T3 sequence (P42574 whole entry): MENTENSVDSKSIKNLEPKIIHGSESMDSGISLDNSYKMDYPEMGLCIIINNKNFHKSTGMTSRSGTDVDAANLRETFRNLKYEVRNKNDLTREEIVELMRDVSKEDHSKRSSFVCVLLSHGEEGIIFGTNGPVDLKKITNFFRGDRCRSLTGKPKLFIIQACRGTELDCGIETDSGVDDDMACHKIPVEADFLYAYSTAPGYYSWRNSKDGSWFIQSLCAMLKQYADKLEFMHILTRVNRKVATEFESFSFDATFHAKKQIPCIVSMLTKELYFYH

[4] = target: T4, Sentrin-specific protease 8 (Homo sapiens, UniProt Q96LD8); assay: inhibition of human SENP8 cleavage activity – biochemical, luminescence, SAR follow-up (AID 504501); format: functional
T4 sequence (Q96LD8 whole entry): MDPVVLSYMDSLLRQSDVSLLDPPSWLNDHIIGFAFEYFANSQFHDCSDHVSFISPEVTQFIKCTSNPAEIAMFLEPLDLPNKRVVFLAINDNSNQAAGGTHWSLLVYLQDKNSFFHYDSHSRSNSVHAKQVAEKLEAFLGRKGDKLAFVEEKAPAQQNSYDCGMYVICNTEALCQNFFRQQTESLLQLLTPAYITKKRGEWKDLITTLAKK

[5] = tested on: HEK293; assay: EBV LMP1 TES2 canonical NF-kB signalling blockers – cell-based, HEK293, luciferase, cherry-pick, dose response (AID 588343); format: functional; settings: Homo sapiens
[6] = viability of uninfected HEp-2 cells – cell-based, HTS, cytotoxicity control for RSV inhibitor project, dose response (AID 2410); format: functional; settings: human respiratory syncytial virus
[7] = target: Latent membrane protein 1 (Human herpesvirus 4 (strain B95-8), UniProt P03230); assay: LMP1 TES1 pathway selectivity over dsRED control – imaging, HEK293T, dual-color eGFP/dsRED, cherry-picks, selectivity assay for LMP1 NF-kB inhibitor project, dose response (AID 588398); format: functional, cell-based
Latent membrane protein 1, sequence (P03230 whole entry): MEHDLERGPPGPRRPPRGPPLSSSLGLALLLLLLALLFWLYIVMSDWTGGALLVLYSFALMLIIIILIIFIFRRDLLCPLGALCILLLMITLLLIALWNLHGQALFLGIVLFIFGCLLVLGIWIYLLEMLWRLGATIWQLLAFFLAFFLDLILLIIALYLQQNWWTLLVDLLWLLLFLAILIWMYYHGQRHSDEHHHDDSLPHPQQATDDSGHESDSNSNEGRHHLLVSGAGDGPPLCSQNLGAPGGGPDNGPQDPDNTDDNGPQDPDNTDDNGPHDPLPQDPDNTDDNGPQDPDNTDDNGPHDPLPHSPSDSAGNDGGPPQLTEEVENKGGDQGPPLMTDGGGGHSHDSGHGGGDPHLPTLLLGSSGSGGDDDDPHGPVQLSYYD

[8] = tested on: Candida albicans; assay: resistant Candida growth with fluconazole co-treatment – CaCi-8 strain, Alamar Blue, dry powder, set 3, dose response (AID 488905); format: functional, organism-based
[9] = tested on: Candida albicans; assay: Candida growth inhibition combined with fluconazole – CaCi-2 strain, Alamar Blue, dry powder, set 3, dose response (AID 488907); format: functional, organism-based

IC50 [1]: > 99 µM (inactive)
IC50 [2]: > 99 µM (inactive)
IC50 [3]: > 99 µM (inactive)
Compound: CCc1cccc2c(C(=O)CN3C(=O)c4ccccc4S3(=O)=O)c[nH]c12
IC50 [4]: > 99 µM (inactive)

Compound: CCn1c2ccccc2c2cc(/C=N/n3cnnc3)ccc21
AC50 [5]: 11.5 µM (active)
CC50 [6]: 18.2 µM (active)
AC50 [7]: 4.05 µM (active)

Compound: COc1ccc(C(=O)N2CCN(c3ccccn3)CC2)cc1
AC50 [8]: 15.4 µM (active)
AC50 [9]: 0.484 µM (active)
